# Data as given in publication PMC5111045, “Modulation of NMDA channel gating by Ca^2+ and Cd^2+ binding to the external pore mouth” (Scientific Reports, 2016).
# What was measured:
# [1] = molecular target: T1, T647A (GluN2B) mutant NMDA channel (Rattus norvegicus, UniProt P35439+Q00960, T647A); assay: Outside-out patch recordings, T647A (GluN2B) mutant NMDA channel; type: cell-based; conditions: 2 mM Ca2+; P = 0.028
# T1 construct: expressed in transfected cells; host or cells: Xenopus laevis oocytes (cRNA injection)
# Protocol: (§1) The rat GluN1a variant and GluN2B cDNA clones were used in this study. Point mutations were made by site-directed mutagenesis using the QuickChange Site-Directed Mutagenesis kit (Stratagene, La Jolla, CA). Mutations were verified by DNA sequencing to ensure the lack of any inadvertent mutations. The capped cRNA transcripts were then synthesized using T7 and T3 mMESSAGE mMACHINE transcription kits (Ambion, Austin, TX), and were stored at −80 °C.
# (§2) This study was carried out in accordance with the ethical information guidelines of the National Taiwan University College of Medicine. The protocols for the care and use of animals were approved by the National Taiwan University College of Medicine and College of Public Health Institutional Animal Care and Use Committee (IACUC). All efforts were made to minimize animal suffering. Adult female Xenopus laevis were anesthetized, and ovarian lobes containing stage V or VI oocytes were removed. Oocytes were dispersed after manual disruption of the egg sac, and were digested for 1 hr with collagenase type I (2 mg/ml) to remove the follicular layer. A mixture of GluN1a variant and GluN2B cRNAs with a ratio of 1:5 (i.e., 0.1–4 ng of GluN1a variant and 0.5–20 ng of GluN2B) (Kashiwagi et al. 2002) was injected into oocytes. Oocytes were maintained in the culture medium (96 mM NaCl, 2 mM KCl, 1.8 mM MgCl2, 1.8 mM CaCl2, 5 mM HEPES, and 50 ug/ml gentamycin, pH 7.6) at 18 °C for 2–3 days before electrophysiological recordings.
# Oocytes were placed in a recording chamber containing Mg^2+-free bath solution (150 mM NaMeSO3, 5 mM NaCl, and 10 mM HEPES; pH 7.4). […] The NMDA currents were recorded at a membrane potential of −70 mV and at room temperature (~25 °C) with an […] amplifier, filtered at 1 kHz with a four-pole Bessel filter, digitized at 500 μs intervals, and stored using a Digidata-1322A analog/digital interface along with the pCLAMP software (all from MDS Analytical Technologies, Sunnyvale, CA). […]
# wild-type NMDA channel = test system: wild-type NMDA channel; set-up: method as in PMID 12451122; conditions: 1 mM Ca2+; decreased from 73 pS; cited from earlier work
# [2] = test system: triple mutant NMDA channel (three negatively charged DRPEER residues neutralized); set-up: method as in PMID 12451122; conditions: 1 mM Ca2+; decreased from 56 pS; cited from earlier work
# [3] = molecular target: T2, E661AE662A double mutant NMDA channel (Rattus norvegicus, UniProt P35439+Q00960, E661A/E662A); assay: Outside-out patch recordings, E661AE662A double mutant NMDA channel; type: cell-based; conditions: 2 mM extracellular Ca2+; n = 6, WT n = 9; P = 5.1*10^−5
# T2 construct: expressed in transfected cells; host or cells: Xenopus laevis oocytes (cRNA injection)
# Protocol: as §1, §2
# Oocytes were placed in a recording chamber containing Mg^2+-free bath solution (150 mM NaMeSO3, 5 mM NaCl, and 10 mM HEPES; pH 7.4). Outside-out patch recordings were obtained using fire-polished pipettes pulled from borosilicate capillaries (outer diameter, 1.55–1.60 mm; Hilgenberg, Malsfeld, Germany). Recording pipettes ([…]) were filled with the pipette solution containing 150 mM NaMeSO3, 5 mM NaCl, 5 mM EGTA, and 10 mM HEPES (pH 7.4). A seal was formed, and the outside-out patch configuration was obtained in Tyrode’s solution (150 mM NaCl, 4 mM KCl, 2 mM MgCl2, 2 mM CaCl2, and 10 mM HEPES; pH 7.4). The patch was then lifted from the bottom of the chamber and moved in front of a set of “theta glass” tubes (2.0 mm outer diameter pulled to an opening of ~300 μm in width; Warner Instrument, Hamden, CT) emitting external recording solutions. The standard external solution was Mg^2+-free Ca^2+-free Tyrode’s solution (pH 7.4), but 2 mM Ca^2+ or 0.1–100 μM Cd^2+ may be added to the external recording solution as specified in each different experimental condition. The glass-tube holder was connected to a stepper motor (SF-77B perfusion system, Warner Instrument) to achieve fast switch for rapid solution change. Drugs and salts were purchased from Sigma (St. Louis, MO). NMDA, glycine, and Cd^2+ were dissolved in water to make 100, 100, and 10 mM stock solutions, respectively. The stock solutions were then diluted into the external recording solution to make 1 to 100 μM Cd^2+, 1 to 300 μM NMDA, and 30 μM glycine. The NMDA currents were recorded at a membrane potential of −70 mV and at room temperature (~25 °C) with an […] amplifier, filtered at 1 kHz with a four-pole Bessel filter, digitized at 500 μs intervals, and stored using a Digidata-1322A analog/digital interface along with the pCLAMP software (all from MDS Analytical Technologies, Sunnyvale, CA). […]
# [4] = molecular target: T3, NMDA receptor channel (GluN1a variant/GluN2B), wild-type (Rattus norvegicus, UniProt P35439+Q00960); assay: Outside-out patch recordings of NMDA receptor currents, wild-type channel expressed in Xenopus oocytes; type: cell-based; conditions: 2 mM extracellular Ca2+
# T3 construct: expressed in transfected cells; host or cells: Xenopus laevis oocytes (cRNA injection)
# Protocol: as §1, §2
# Oocytes were placed in a recording chamber containing Mg^2+-free bath solution (150 mM NaMeSO3, 5 mM NaCl, and 10 mM HEPES; pH 7.4). Outside-out patch recordings were obtained using fire-polished pipettes pulled from borosilicate capillaries (outer diameter, 1.55–1.60 mm; Hilgenberg, Malsfeld, Germany). Recording pipettes ([…]) were filled with the pipette solution containing 150 mM NaMeSO3, 5 mM NaCl, 5 mM EGTA, and 10 mM HEPES (pH 7.4). A seal was formed, and the outside-out patch configuration was obtained in Tyrode’s solution (150 mM NaCl, 4 mM KCl, 2 mM MgCl2, 2 mM CaCl2, and 10 mM HEPES; pH 7.4). The patch was then lifted from the bottom of the chamber and moved in front of a set of “theta glass” tubes (2.0 mm outer diameter pulled to an opening of ~300 μm in width; Warner Instrument, Hamden, CT) emitting external recording solutions. The standard external solution was Mg^2+-free Ca^2+-free Tyrode’s solution (pH 7.4), but 2 mM Ca^2+ or 0.1–100 μM Cd^2+ may be added to the external recording solution as specified in each different experimental condition. The glass-tube holder was connected to a stepper motor (SF-77B perfusion system, Warner Instrument) to achieve fast switch for rapid solution change. Drugs and salts were purchased from Sigma (St. Louis, MO). NMDA, glycine, and Cd^2+ were dissolved in water to make 100, 100, and 10 mM stock solutions, respectively. The stock solutions were then diluted into the external recording solution to make 1 to 100 μM Cd^2+, 1 to 300 μM NMDA, and 30 μM glycine. The NMDA currents were recorded at a membrane potential of −70 mV and at room temperature (~25 °C) with an […] amplifier, filtered at 1 kHz with a four-pole Bessel filter, digitized at 500 μs intervals, and stored using a Digidata-1322A analog/digital interface along with the pCLAMP software (all from MDS Analytical Technologies, Sunnyvale, CA). To plot the activation and the desensitization curves, a patch was moved from the NMDA- and glycine-free external solution to the external solution containing 0 to 100 μM NMDA and 30 μM glycine for 3 s (the desensitization prepulse), and then moved to another external solution containing 300 μM NMDA and 30 μM glycine for 3 s (the test pulse) before being moved back to the NMDA-free external solution again. The amplitude of the sustained currents in the desensitization prepulse in each different concentration of NMDA is normalized to the maximal current and plotted against the NMDA concentration to obtain the activation curve. […]
# T3 sequence (Q00960 27-1482, other chains not shown): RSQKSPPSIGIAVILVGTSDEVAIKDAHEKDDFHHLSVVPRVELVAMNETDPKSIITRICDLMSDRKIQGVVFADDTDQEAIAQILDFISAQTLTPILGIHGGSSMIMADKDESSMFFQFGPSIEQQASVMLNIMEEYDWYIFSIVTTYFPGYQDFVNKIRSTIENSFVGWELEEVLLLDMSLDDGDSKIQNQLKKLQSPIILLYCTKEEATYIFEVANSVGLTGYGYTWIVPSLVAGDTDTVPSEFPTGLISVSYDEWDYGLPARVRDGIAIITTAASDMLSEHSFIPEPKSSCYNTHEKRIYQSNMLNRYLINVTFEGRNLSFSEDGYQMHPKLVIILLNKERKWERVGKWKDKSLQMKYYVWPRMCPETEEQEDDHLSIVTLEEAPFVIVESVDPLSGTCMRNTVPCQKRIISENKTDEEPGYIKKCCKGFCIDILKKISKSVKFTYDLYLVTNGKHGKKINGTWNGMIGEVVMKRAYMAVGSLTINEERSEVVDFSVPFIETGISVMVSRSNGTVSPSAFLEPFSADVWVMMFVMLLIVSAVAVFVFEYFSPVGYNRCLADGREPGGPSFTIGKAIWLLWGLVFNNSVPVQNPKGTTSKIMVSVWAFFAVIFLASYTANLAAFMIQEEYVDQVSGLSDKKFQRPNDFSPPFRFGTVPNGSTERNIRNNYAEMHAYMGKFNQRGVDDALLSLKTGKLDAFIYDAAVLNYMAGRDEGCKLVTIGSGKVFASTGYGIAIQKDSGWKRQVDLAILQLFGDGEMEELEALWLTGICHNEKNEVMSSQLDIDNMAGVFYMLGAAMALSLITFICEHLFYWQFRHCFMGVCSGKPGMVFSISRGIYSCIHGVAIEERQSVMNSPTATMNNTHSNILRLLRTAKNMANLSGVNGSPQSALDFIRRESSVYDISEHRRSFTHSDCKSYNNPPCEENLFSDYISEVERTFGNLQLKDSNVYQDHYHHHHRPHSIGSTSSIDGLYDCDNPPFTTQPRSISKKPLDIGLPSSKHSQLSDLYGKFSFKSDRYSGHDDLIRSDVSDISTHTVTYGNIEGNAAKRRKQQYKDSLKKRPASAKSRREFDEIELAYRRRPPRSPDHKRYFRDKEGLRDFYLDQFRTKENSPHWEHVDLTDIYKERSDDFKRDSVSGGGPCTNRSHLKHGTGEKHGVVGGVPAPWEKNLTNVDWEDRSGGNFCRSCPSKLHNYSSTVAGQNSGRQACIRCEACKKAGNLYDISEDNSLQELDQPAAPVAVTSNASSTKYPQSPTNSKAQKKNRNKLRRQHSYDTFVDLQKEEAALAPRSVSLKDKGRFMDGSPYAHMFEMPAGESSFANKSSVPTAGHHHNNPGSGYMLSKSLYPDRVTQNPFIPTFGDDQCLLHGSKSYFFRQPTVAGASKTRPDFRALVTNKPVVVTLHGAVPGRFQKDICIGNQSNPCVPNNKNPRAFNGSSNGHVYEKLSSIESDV
# T2 sequence (Q00960 27-1482, other chains not shown): as above
# T1 sequence (Q00960 27-1482 T647A, other chains not shown): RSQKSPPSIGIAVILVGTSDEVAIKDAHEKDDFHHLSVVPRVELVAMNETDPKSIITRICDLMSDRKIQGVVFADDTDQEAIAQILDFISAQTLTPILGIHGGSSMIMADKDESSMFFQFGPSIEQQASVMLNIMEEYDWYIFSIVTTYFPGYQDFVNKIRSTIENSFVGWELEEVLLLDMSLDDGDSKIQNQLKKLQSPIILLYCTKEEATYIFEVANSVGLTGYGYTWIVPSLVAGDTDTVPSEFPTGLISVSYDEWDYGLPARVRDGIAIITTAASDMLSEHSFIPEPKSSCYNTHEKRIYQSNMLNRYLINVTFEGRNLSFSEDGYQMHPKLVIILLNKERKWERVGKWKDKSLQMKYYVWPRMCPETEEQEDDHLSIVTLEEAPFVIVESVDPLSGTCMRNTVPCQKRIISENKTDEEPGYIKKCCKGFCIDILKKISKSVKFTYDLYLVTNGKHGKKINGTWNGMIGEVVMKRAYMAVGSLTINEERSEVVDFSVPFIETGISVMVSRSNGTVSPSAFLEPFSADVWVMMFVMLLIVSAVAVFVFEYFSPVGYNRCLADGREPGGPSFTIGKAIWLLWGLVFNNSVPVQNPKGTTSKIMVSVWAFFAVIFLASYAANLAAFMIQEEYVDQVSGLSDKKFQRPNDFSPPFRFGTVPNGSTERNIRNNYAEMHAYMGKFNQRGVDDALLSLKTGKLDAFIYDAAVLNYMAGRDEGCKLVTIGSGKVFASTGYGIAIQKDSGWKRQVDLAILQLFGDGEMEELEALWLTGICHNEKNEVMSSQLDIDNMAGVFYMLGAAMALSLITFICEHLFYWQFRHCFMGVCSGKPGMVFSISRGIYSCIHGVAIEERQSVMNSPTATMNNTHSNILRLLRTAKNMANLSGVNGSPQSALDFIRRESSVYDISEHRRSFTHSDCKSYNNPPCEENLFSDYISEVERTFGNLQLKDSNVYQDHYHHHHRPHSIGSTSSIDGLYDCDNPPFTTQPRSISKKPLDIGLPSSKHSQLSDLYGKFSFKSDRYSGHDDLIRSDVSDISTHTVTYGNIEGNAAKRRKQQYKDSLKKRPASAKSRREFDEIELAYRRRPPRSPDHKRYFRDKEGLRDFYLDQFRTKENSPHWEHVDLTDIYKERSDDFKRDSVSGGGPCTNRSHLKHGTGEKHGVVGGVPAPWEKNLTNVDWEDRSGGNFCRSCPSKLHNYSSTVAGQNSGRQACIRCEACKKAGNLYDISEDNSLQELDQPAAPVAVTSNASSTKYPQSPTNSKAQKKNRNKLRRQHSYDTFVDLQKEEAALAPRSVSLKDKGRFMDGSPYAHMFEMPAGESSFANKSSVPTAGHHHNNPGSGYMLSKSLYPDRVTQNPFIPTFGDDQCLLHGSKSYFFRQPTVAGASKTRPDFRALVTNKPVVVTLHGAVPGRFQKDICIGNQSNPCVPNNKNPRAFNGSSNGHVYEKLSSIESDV
smiles,measurement,setting,value
[Ca+2] [Ca^2+],"relative hook current after wash-off of agonists and blocking cation, compared with WT channel",[1],significantly larger hook current
same,overall current flow through the NMDA channel in Ca2+,wild-type NMDA channel,41 pS
same,overall current flow through the NMDA channel in Ca2+,[2],45 pS
same,effect on sustained current (relative current) compared with WT channel,[3],significantly decreased
same,"effect on NMDAR current, cation present during the NMDA pulse",[4]; 300 μM NMDA plus 30 μM glycine,decreases the NMDAR current
same,"effect on NMDAR current peak, cation applied before but not during the NMDA pulse",[4]; closed channel,evident decrease of the NMDAR current peak
